Laboratory results reported in PMC12673733, “Hydroxyethylamine & phthalimide analogs restoring defects due to GNE dysfunction: rare disease therapeutic significance” (Molecular Medicine, 2025).

Target: T1, r-wtGNE (hGNE1; recombinant wild type GNE) (Homo sapiens, UniProt Q9Y223)
T1 construct: recombinant full-length GNE; expressed in E. coli, partially purified (methods also name pcDNA3.1 vector)
T1 sequence (Q9Y223 1-722): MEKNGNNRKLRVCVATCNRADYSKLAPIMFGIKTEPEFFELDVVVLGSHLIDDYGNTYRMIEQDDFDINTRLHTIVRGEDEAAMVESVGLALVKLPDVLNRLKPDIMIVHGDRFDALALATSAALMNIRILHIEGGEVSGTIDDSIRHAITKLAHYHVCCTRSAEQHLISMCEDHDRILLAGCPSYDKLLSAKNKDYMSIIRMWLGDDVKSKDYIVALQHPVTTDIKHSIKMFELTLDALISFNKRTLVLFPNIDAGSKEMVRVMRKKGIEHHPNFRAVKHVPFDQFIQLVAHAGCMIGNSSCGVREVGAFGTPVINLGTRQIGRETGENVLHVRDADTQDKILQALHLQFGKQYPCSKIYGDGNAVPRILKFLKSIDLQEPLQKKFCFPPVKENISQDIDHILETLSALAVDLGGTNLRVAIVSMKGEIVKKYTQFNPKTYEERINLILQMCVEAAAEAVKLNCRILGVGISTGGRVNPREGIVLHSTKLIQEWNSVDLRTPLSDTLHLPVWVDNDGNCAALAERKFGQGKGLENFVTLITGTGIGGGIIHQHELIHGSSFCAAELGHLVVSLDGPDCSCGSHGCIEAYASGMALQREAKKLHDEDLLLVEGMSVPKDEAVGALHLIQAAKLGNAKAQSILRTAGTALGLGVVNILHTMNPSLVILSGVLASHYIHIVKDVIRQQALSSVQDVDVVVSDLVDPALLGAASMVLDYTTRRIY
Test: SPR, GNE immobilised on gold chip
Type: binding

Kd: 3 mM
SMILES: C[C@H](C(=O)N[C@@H](Cc1ccccc1)[C@@H](O)CN1CCN(Cc2ccccc2)CC1)c1ccccc1 [LTC-181, (S)-N-((2 S,3 S)−4-(4-benzylpiperazin-1-yl)−3-hydroxy-1-phenylbutan-2-yl)−2-phenylpropanamide]
